{
  "source": "ChEMBL document CHEMBL4257493",
  "about": "“Discovery of 7-hydroxyaporphines as conformationally restricted ligands for beta-1 and beta-2 adrenergic receptors” (Medchemcomm, 2018)",
  "molecular_target": "Beta-2 adrenergic receptor (Homo sapiens, UniProt P07550)",
  "sequence (P07550 whole entry)": "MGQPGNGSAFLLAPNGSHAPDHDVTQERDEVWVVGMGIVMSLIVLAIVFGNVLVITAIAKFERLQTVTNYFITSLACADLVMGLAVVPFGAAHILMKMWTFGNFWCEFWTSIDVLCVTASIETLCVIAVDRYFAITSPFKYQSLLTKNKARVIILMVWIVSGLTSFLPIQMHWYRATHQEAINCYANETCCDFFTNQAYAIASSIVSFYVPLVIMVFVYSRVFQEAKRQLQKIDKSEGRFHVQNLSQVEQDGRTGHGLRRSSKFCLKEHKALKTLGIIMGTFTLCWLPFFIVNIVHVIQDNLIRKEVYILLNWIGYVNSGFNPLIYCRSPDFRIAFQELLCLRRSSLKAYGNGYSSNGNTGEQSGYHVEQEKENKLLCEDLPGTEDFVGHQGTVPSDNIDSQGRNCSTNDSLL",
  "experiment": "Displacement of [3H]-CGP-12177 from human beta2-adrenergic receptor",
  "data": [
    {"molecule": "COc1cc2c(cc1OC)[C@H]([C@H](O)c1ccccc1)NCC2", "values": [
      {"measurement": "IC50", "value": "> 10", "unit": "µM"}
    ]}
  ]
}
